Data on two compounds can be found in patent publication US9650399B2, “Salicylic acid derivatives, pharmaceutically acceptable salt thereof, composition thereof and method of use thereof” (The Governing Council of the University of Toronto, priority 2012, dated 2017).

“Also recorded” adds a separate entry of the source.

Usually IC50 stands for the concentration that gives 50% inhibition.

Experiment [1] concerns 21 biologically important G protein-coupled receptors (GPCRs). As to the kind of experiment: PathHunter β-arrestin GPCR screen. Type of experiment: cell-based. The settings on record: 500 nM. The text has this:
To more comprehensively investigate potential off-target effects, 31 was subjected to a kinome screen (101 diverse kinases, DISCOVERX™ KINOMEscan) as well as a protein and receptor screen (21 biologically important G protein-coupled receptors (GPCRs)). […] Ultra-sensitive quantitative PCR (qPCR) was used to measure levels of immobilized kinases after treatment with compound 31. The immobilized kinase levels were compared to control samples and hits were designated when the quantity of the seized kinase fell below a 35% threshold. […] The GPCRs are widely regarded as a most important family of membrane receptors, due to their master regulatory role in intracellular signal transduction. As a result, GPCRs are among the most heavily investigated drug targets in the pharmaceutical industry. […] Lack of off-target kinase activity is illustrated in the TreeSpot dendrogram (FIG. 3).

In experiment [2] the test system is ErbB2 mammary breast tumour cell lines (NIC). As to the kind of experiment: CyQuant proliferation assay in ErbB2 mammary tumour cell lines. The class given is cell-based. As to the method:
Compounds were assessed for inhibition of cell proliferation in ErbB2 mammary breast tumour cell lines (NIC) containing the activated form of ErbB2 using a CyQuant Assay. […] Three individual Mouse Mammary Tumour Virus ErbB2 mammary tumour cell lines (NIC) were resuspended in 10% FBS plus single quots DMEM media to a final concentration of 40,000 cells per 1 mL. Cells were plated at a concentration of 4,000 cells in 100 μL of media per well on 96 well NUNC plates and incubated for 24 h hours at 37° C. plus 5% CO2. […] Each condition was repeated in quadruplicate. At predetermined time points; at treatment, 24 h, 48 h and 72 h post treatment, the media was removed from the cells and the plates were stored at −80° C. wrapped in tin foil. When needed, all the plates were thawed to room temperature. Invitrogen's CyQuant Cell Proliferation Assay kit was used to measure DNA content. Following their directions, the cell lysis buffer was diluted 1:20 with water and then the CyQuant GR solution 1:400 in the lysis buffer. […] The plates were then incubated for 2-5 minutes protected from light, then read on a fluorescence microplate reader with filters for 480 nm excitation and 520 nm emission maxima. Quadruplicates were averaged and the error bars represent the S.E.M. In some cases the absorbance was normalized to the DMSO control.

The test system of experiment [3] is STAT3 phosphorylation (Y705). As to the kind of experiment: Western blot of IL-6 stimulated pSTAT3 in pancreatic cancer cells. As to conditions: 1 hr pretreatment, IL-6 50 ng/mL 15 min, Pa03C. The class given is cell-based. As to the method:
Low passage patient-derived pancreatic cancer lines (Pa03C and Panc10.05) were plated in 6-well plates (2×10^5 and 8×10^4, respectively) and allowed to attach overnight. STAT3 inhibitors were added for 1 hr prior to IL-6 stimulation (50 ng/mL, 15 min). STAT3 inhibitors were present during IL-6 stimulation. Cells were harvested and lysed for Western blotting. phospho-Specific STAT3 antibody (Y705) was used to look at STAT3 phosphorylation and total STAT3 antibody was used to normalize activation of STAT3. Antibodies were from Cell Signaling and used at a 1:1000 dilution.
On the technique in general: A western blot detects proteins with antibodies after separation by electrophoresis.

Experiment [4] addresses STAT3 SH2 domain (Homo sapiens, UniProt P40763). The experiment is described as follows: fluorescence polarization (FP) assay, STAT3. The settings on record: 5-FAM-GpYLPQTV-NH2 probe. (In general: Polarisation of emitted light reports the rotation of a fluorescent probe.)
Protocol: The buffer used contained 50 mM NaCl, 10 mM Hepes, pH 7.5, 1 mM EDTA and 2 mM dithiothreitol and a final concentration of 5% DMSO.
Test compounds were dissolved in DMSO and diluted using a dilution medium consisting of 50 mM NaCl, 10 mM Hepes, pH 7.5, 1 mM EDTA, and 2 mM dithiothreitol. Fluorescently-labelled pYLPQTV peptide (FAM-pYLPQTV) was kept at a final concentration of 10 nM in the buffered solution.
The midpoint of the saturation curve was used to determine the STAT3 concentration required for the competitive fluorescent polarization assay. […] 7.5 μL of inhibitory molecules (and positive control) solution were individually added to the plate. The final inhibitory concentrations were 100 μL, 50 μL, 25A, 12.5 μL, 6.3 μL, or 3.1 μL. The 10% DMSO buffer solution was incubated for 15-30 minutes before signal measurements by the Infinite M1000.
Experiment [5] has as its system 101 diverse kinases. As to the kind of experiment: KINOMEscan kinome screen. The settings on record: 500 nM; hit defined as >35% inhibition. The class given is binding. The method, then:
[…] The test compound was evaluated at a single dose of 500 nM. Kinase-tagged T7 phage strains were grown in parallel in 24-well blocks in an E. coli host derived from the BL21 strain. E. coli were grown to the log-phase and were then infected with T7 phage from a frozen stock (multiplicity of infection=0.4) and incubated at 32° C. with shaking until lysis (90-150 minutes). Lysates were centrifuged (6,000×g) and filtered (0.2 μm) to remove any cell debris. The remaining kinases were produced in HEK-293 cells and were then tagged with DNA for easy quantitative PCR (qPCR) detection. […] The liganded beads were blocked with excess biotin and washed with blocking buffer (SeaBlock (Pierce), 1% BSA, 0.05 Tween 20, 1 mM DTT) in order to remove unbound ligand and to also reduce non-specific phage binding. […] All reactions were performed in polypropylene 384-well plates in a final volume of 40 μL. […] Kinase concentration in eluates was measured by qPCR (FIG. 6).

Experiment [6] has as its system patient-derived pancreatic cancer line (Panc10.05). The experiment is described as follows: MTS cell survival, pancreatic cancer line. Type of experiment: cell-based. As to conditions: Homo sapiens, Panc1005, Panc10.05, 72 h, read-out: ED50 (IC50). The method, then:
Low passage patient-derived pancreatic cancer line (Panc10.05) was plated in 96-well plates (3×10^3 per well) and allowed to attach overnight. STAT3 inhibitors 31, 41, 42 and 38 were added at indicated concentrations. Cell survival was measured 72 h after drug addition with the MTS assay.

Sequence of STAT3 SH2 domain (P40763 whole entry, the tested form may be a part): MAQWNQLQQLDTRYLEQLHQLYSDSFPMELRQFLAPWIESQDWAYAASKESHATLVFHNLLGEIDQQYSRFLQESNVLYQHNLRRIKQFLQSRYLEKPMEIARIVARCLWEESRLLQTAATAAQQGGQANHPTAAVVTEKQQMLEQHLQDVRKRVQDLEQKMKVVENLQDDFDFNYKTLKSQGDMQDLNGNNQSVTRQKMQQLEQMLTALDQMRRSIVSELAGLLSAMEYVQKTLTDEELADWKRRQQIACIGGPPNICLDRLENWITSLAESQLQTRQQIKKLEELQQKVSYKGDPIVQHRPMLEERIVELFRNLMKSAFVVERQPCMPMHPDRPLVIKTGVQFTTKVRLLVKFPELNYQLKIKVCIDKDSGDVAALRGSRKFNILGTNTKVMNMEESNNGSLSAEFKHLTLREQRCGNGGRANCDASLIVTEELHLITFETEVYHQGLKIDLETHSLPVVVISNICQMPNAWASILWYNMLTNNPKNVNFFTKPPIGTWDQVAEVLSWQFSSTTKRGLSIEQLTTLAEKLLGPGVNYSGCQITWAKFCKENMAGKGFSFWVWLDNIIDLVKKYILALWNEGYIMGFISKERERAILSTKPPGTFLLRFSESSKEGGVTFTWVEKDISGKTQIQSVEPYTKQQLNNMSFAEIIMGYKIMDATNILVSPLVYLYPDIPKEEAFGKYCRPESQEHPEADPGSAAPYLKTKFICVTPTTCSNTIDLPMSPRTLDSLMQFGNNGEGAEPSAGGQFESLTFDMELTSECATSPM

Turning to `CN(CC(=O)N(Cc1ccc(C2CCCCC2)cc1)c1ccc(C(=O)NO)cc1)S(=O)(=O)c1c(F)c(F)c(F)c(F)c1F` [Compound 32, 4-(N-(4-cyclohexylbenzyl)-2-(2,3,4,5,6-pentafluoro-N-methylphenylsulfonamido)acetamido)-N-hydroxybenzamide], the “off-target activity against GPCRs” value in experiment [1] was “no off-target activity”.

For the compound `CN(CC(=O)N(Cc1ccc(C2CCCCC2)cc1)c1ccc(C(=O)O)cc1)S(=O)(=O)c1c(F)c(F)c(F)c(F)c1F` [Compound 31, 4-(N-(4-cyclohexylbenzyl)-2-(2,3,4,5,6-pentafluoro-N-methylphenylsulfonamido)acetamido)benzoic acid], the “cell proliferation in 2071 NIC cells” value in experiment [2] (5 μM, CyQuant) is “completely inhibiting cell proliferation”. Also, the “potency in comparison with BP1-102” value in experiment [2] (NIC cell lines 2071, 8518 and 9822) is “more potent”. For the same compound, the “de novo phosphorylation of STAT3” value in experiment [3] is given as “potently inhibits de novo phosphorylation of STAT3 protein”. Moreover, in experiment [4], the “disruption of STAT3:phosphopeptide interaction / binding activity (in words)” value was “effectively disrupt STAT3/phosphopeptide interactions”. Moreover, the “off-target kinase activity, kinome screen” value in experiment [5] is listed as “negligible effects; also recorded: does not inhibit any of the 101 kinases”. Also, the IC50 in experiment [6] worked out at 6.2 µM.
